Reference: the supplement of paper PMC13380429

Columns and labels:
Settings in all cases: 72 h
HepG2 [1] = test: cell viability relative to DMSO; higher = less toxic
Vero E6 [2] = test: as above
U2OS [3] = test: as above
Calu-3 [4] = test: as above
Caco-2 [5] = test: as above
HepG2 [6] = test: relative viability EC50 (midpoint between 100% and the lowest measured viability); higher = less toxic
Vero E6 [7] = test: as above
U2OS [8] = test: as above
Calu-3 [9] = test: as above
Caco-2 [10] = test: as above
HepG2 [11] = test: drug sensitivity score (DSS) for viability; higher = more toxic; extreme values may be limits of the assay
Vero E6 [12] = test: as above
U2OS [13] = test: as above
Calu-3 [14] = test: as above
Caco-2 [15] = test: as above

Compound	cell viability (HepG2 [1]; 1 nM) [%]	cell viability (HepG2 [1]; 10 nM) [%]	cell viability (HepG2 [1]; 100 nM) [%]	cell viability (HepG2 [1]; 1000 nM) [%]	cell viability (HepG2 [1]; 10000 nM) [%]	cell viability (Vero E6 [2]; 1 nM) [%]	cell viability (Vero E6 [2]; 10 nM) [%]	cell viability (Vero E6 [2]; 100 nM) [%]	cell viability (Vero E6 [2]; 1000 nM) [%]	cell viability (Vero E6 [2]; 10000 nM) [%]	cell viability (U2OS [3]; 1 nM) [%]	cell viability (U2OS [3]; 10 nM) [%]	cell viability (U2OS [3]; 100 nM) [%]	cell viability (U2OS [3]; 1000 nM) [%]	cell viability (U2OS [3]; 10000 nM) [%]	cell viability (Calu-3 [4]; 1 nM) [%]	cell viability (Calu-3 [4]; 10 nM) [%]	cell viability (Calu-3 [4]; 100 nM) [%]	cell viability (Calu-3 [4]; 1000 nM) [%]	cell viability (Calu-3 [4]; 10000 nM) [%]	cell viability (Caco-2 [5]; 1 nM) [%]	cell viability (Caco-2 [5]; 10 nM) [%]	cell viability (Caco-2 [5]; 100 nM) [%]	cell viability (Caco-2 [5]; 1000 nM) [%]	cell viability (Caco-2 [5]; 10000 nM) [%]	relative viability EC50 (HepG2 [6]) [µM]	relative viability EC50 (Vero E6 [7]) [µM]	relative viability EC50 (U2OS [8]) [µM]	relative viability EC50 (Calu-3 [9]) [µM]	relative viability EC50 (Caco-2 [10]) [µM]	drug sensitivity score (HepG2 [11])	drug sensitivity score (Vero E6 [12])	drug sensitivity score (U2OS [13])	drug sensitivity score (Calu-3 [14])	drug sensitivity score (Caco-2 [15])
O=C1N=C2SCCN2C(=O)C1Cc1ccc(Cl)cc1 (stereo not given) [nuclomedone]	93.7	89.1	95.3	96.4	92	96.9	95.5	95.1	104	93.4	98.4	97.6	95.6	95.6	96.4	91.5	104	95.5	99.9	90.5	93.1	96.5	91.9	92.2	94.9	> 10	> 10	> 10	> 10	> 10	0	0	0	0	0
CCCCCCCC/C=C\CCCCCCCC(=O)NCCO [oleoylethanolamide]	92.1	96.1	103	90.2	104	106	102	105	96.4	103	99.8	100	97	103	103	97.2	101	97.1	102	101	86.2	99.2	92.3	104	106	> 10	> 10	> 10	> 10	> 10	0	0	0	0	0
COc1cccc(C(=O)CCN[C@@H](C)[C@H](O)c2ccccc2)c1 [oxyfedrine]	101	105	98.9	91.3	79.8	103	99.8	99.2	104	101	97.8	103	98.5	99.9	95.4	86.3	98.6	113	95.6	107	99.3	101	108	102	95.8	> 10	> 10	> 10	> 10	> 10	1.3	0	0	0	0
CC(=O)CCCCn1c(=O)c2c(ncn2C)n(C)c1=O [pentoxifylline]	88.1	98.5	110	94.3	106	104	110	108	108	99.2	101	96.1	102	94.2	100	99.7	95	104	95.8	98.1	98.1	115	97	114	89.1	> 10	> 10	> 10	> 10	> 10	0	0	0	0	0
O=C1OC(c2ccc(O)cc2)(c2ccc(O)cc2)c2ccccc21 [phenolphthalein]	131	76.1	112	105	119	95.8	93.2	87.4	95.3	107	99.1	96.1	99.7	97	105	96.1	94.8	94.2	102	102	86.3	77.8	99.7	93.2	102	> 10	> 10	> 10	> 10	> 10	0	0	0	0	0
O=C(CCc1ccc(O)cc1)c1c(O)cc(O)cc1O[C@@H]1O[C@H](CO)[C@@H](O)[C@H](O)[C@H]1O [phlorizin]	107	87.5	94.9	96.9	106	96.4	97.9	98.4	96.7	97.3	96.7	98.5	93.3	104	94.5	89.7	95.5	93.2	94.3	95.3	94.3	118	98.3	97.7	93.7	> 10	> 10	> 10	> 10	> 10	0	0	0	0	0
CC[C@@H]1C(=O)OC[C@@H]1Cc1cncn1C [pilocarpine]	97.7	95.3	105	104	105	106	104	99.3	106	103	106	101	101	99.2	100	109	102	103	98.4	97.9	100	98.1	88.7	91.3	103	> 10	> 10	> 10	> 10	> 10	0	0	0	0	0
COc1cc2nc(N3CCN(C(=O)c4ccco4)CC3)nc(N)c2cc1OC [prazosin]	89.9	93.5	86.2	91.9	97.6	102	105	101	99.3	118	98.2	97.8	99.5	102	101	105	102	103	97.4	99.1	94.4	91.2	98.4	96	92.5	> 10	> 10	> 10	> 10	> 10	0	0	0	0	0
CCN(CC)CCOC(=O)c1ccc(N)cc1 [procaine]	108	94.9	100	97.7	98.9	104	99.4	99.3	103	98.5	100	95.2	97.9	94.2	102	100	93.3	92	97	98.3	92.8	92.7	96.6	97	97.3	> 10	> 10	> 10	> 10	> 10	0	0	0	0	0
CNC(=O)Oc1ccccc1OC(C)C [propoxur]	105	93.3	87.5	93.8	99.7	95	106	102	88.2	85.4	101	97.7	95.7	94.9	98.2	102	97.1	86.2	94.4	104	99.6	84.6	104	88.1	101	> 10	> 10	> 10	> 10	> 10	0	1	0	0	0
C[C@@H](O)[C@H](N)C(=O)N1CCC[C@H]1C(=O)N1CCC[C@H]1C(=O)N[C@H](C(N)=O)[C@@H](C)O [rapastinel]	100	110	91.9	104	97.6	97.6	99.5	95	102	114	95.7	94.4	98.8	95.6	97.3	95.3	101	91.4	96.8	106	100	88	97.6	97.1	92.6	> 10	> 10	> 10	> 10	> 10	0	0	0	0	0
CC(Cc1ccccc1)(NC(=O)CN)c1ccccc1 (stereo not given) [remacemide]	99.4	96.1	100	94.3	104	99.7	101	102	96.2	99.3	98.6	94.7	99.6	93.6	94	102	93.6	92.5	98.6	90.8	99.6	92.8	100	91.5	102	> 10	> 10	> 10	> 10	> 10	0	0	0	0	0
CC(NCCc1ccc(O)cc1)C(O)c1ccc(O)cc1 (stereo not given) [ritodrine]	94.5	102	91.4	95.8	103	86.5	93.6	102	98.9	109	96.9	102	97	101	105	102	105	93.7	98.3	101	91.4	97.7	95.5	99.7	105	> 10	> 10	> 10	> 10	> 10	0	0	0	0	0
CCN(C)C(=O)Oc1cccc([C@H](C)N(C)C)c1 [rivastigmine]	113	102	98	106	98.2	101	106	103	106	97.6	95.8	99.2	99.9	98.7	103	93.5	95	101	98.3	94.4	109	95.5	104	96.7	95.8	> 10	> 10	> 10	> 10	> 10	0	0	0	0	0
CNCC(=O)O [sarcosine]	112	110	88.4	106	107	93.4	97.8	90.4	103	112	96.1	99.2	99.1	96	107	92.9	98.5	96.7	89.6	97.7	93.3	93.4	95.5	102	110	> 10	> 10	> 10	> 10	> 10	0	0	0	0	0
